Test results as given in PubChem BioAssay (NCI).
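Cultured in 96-well plates, cells were exposed to test compound for 48 hours across five concentrations. GI50: concentration for 50% inhibition of growth. TGI marks complete inhibition of growth.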

Experiments:
Assay in all cases: NCI tumour cell line growth inhibition, 48 h
786-0 renal = test system: 786-0 renal
A498 renal = test system: A498 renal
A549 NSCLC = test system: A549 NSCLC
ACHN renal = test system: ACHN renal
BT-549 breast = test system: BT-549 breast
CAKI-1 renal = test system: CAKI-1 renal
COLO 205 colon = test system: COLO 205 colon
DU-145 prostate = test system: DU-145 prostate
EKVX NSCLC = test system: EKVX NSCLC
HCC-2998 colon = test system: HCC-2998 colon
HCT-116 colon = test system: HCT-116 colon
HCT-15 colon = test system: HCT-15 colon
HOP-62 NSCLC = test system: HOP-62 NSCLC
HOP-92 NSCLC = test system: HOP-92 NSCLC
HS 578T breast = test system: HS 578T breast
HT29 colon = test system: HT29 colon
IGROV1 ovarian = test system: IGROV1 ovarian
LOX IMVI melanoma = test system: LOX IMVI melanoma
MALME-3M melanoma = test system: MALME-3M melanoma
MCF7 breast = test system: MCF7 breast
MDA-MB-231 breast = test system: MDA-MB-231 breast
MDA-MB-435 = test system: MDA-MB-435
MOLT-4 leukemia = test system: MOLT-4 leukemia
NCI-H226 lung = test system: NCI-H226 lung
NCI-H23 lung = test system: NCI-H23 lung
NCI-H460 lung = test system: NCI-H460 lung

C[C@H]1[C@H](C)CC[C@]2(C(=O)O)CC[C@]3(C)C(=CC[C@@H]4[C@@]5(C)CC[C@H](OC(=O)/C=C\c6ccc(O)cc6)C(C)(C)[C@@H]5CC[C@]43C)[C@H]12
GI50 (786-0 renal): 3.22 µM | TGI (786-0 renal): 16 µM | GI50 (A498 renal): 15 µM | TGI (A498 renal): 29.2 µM | GI50 (A549 NSCLC): 2.02 µM | TGI (A549 NSCLC): > 100 µM | GI50 (ACHN renal): 2.89 µM | TGI (ACHN renal): 12.1 µM | GI50 (BT-549 breast): 9.58 µM | TGI (BT-549 breast): 31.2 µM | GI50 (CAKI-1 renal): 3.71 µM | TGI (CAKI-1 renal): 15.6 µM | GI50 (COLO 205 colon): 3.85 µM | TGI (COLO 205 colon): 14.8 µM | GI50 (DU-145 prostate): 4.07 µM | TGI (DU-145 prostate): 17.6 µM | GI50 (EKVX NSCLC): 3.11 µM | TGI (EKVX NSCLC): 13.7 µM | GI50 (HCC-2998 colon): 2.92 µM | TGI (HCC-2998 colon): 14.1 µM | GI50 (HCT-116 colon): 1.53 µM | TGI (HCT-116 colon): 3.98 µM | GI50 (HCT-15 colon): 3.08 µM | TGI (HCT-15 colon): 12.7 µM | GI50 (HOP-62 NSCLC): 2.26 µM | TGI (HOP-62 NSCLC): 12.8 µM | GI50 (HOP-92 NSCLC): 4.25 µM | TGI (HOP-92 NSCLC): 19.2 µM | GI50 (HS 578T breast): 3.1 µM | TGI (HS 578T breast): 22.6 µM | GI50 (HT29 colon): 4.87 µM | TGI (HT29 colon): 19.5 µM | GI50 (IGROV1 ovarian): 15.5 µM | TGI (IGROV1 ovarian): > 100 µM | GI50 (LOX IMVI melanoma): 3.86 µM | TGI (LOX IMVI melanoma): 15.9 µM | GI50 (MALME-3M melanoma): 2.51 µM | TGI (MALME-3M melanoma): 13.2 µM | GI50 (MCF7 breast): 1.36 µM | TGI (MCF7 breast): 3.63 µM | GI50 (MDA-MB-231 breast): 2.55 µM | TGI (MDA-MB-231 breast): 13.5 µM | GI50 (MDA-MB-435): 4.24 µM | TGI (MDA-MB-435): 42.4 µM | GI50 (MOLT-4 leukemia): 4.56 µM | TGI (MOLT-4 leukemia): 19.7 µM | GI50 (NCI-H226 lung): 4.55 µM | TGI (NCI-H226 lung): 26.3 µM | GI50 (NCI-H23 lung): 3.48 µM | TGI (NCI-H23 lung): 15.9 µM | GI50 (NCI-H460 lung): 2.23 µM
